Reference: ChEMBL document CHEMBL1201862, “PubChem BioAssay data set” (2004)
Active and inactive are the calls of the source. Cut-off read from the data, not from the text of the source, for most assays here: actives have a measured EC50 and inactives only a lower limit.

Tests used:
H4 = experiment: Luminescence Cell-Based Dose Response HTS to Identify Activators of 5'UTR Stem-Loop Driven Prion Protein mRNA Translation in H4 Neuroglioblastoma Cells. [Related pubchem assays: 1829 (Project Summary), 1814 (Primary HTS)]; assay type: functional; settings: Homo sapiens
[1] = Luminescence Cell-Based Dose Confirmation HTS to Identify Activators of 5'UTR Stem-Loop Driven Alpha-Synuclein mRNA Translation in H4 Neuroglioblastoma Cells. [Related pubchem assays: 1829 (Project Summary), 1814 (Primary HTS)]; assay type: functional
[2] = Luminescence Cell-Based Dose Response HTS to Identify Activators of Luciferase Translation or Activity in H4 […] Cells. [Related pubchem assays: 1829 (Project Summary), 1814 (Primary HTS)]; assay type: functional
Nonstructural protein 1 = Nonstructural protein 1 (Influenza A virus, UniProt Q194T2); assay type: functional, Influenza A virus (A/California/07/2009(H1N1))
Nonstructural protein 1, sequence (Q194T2 whole entry, the tested form may be a part): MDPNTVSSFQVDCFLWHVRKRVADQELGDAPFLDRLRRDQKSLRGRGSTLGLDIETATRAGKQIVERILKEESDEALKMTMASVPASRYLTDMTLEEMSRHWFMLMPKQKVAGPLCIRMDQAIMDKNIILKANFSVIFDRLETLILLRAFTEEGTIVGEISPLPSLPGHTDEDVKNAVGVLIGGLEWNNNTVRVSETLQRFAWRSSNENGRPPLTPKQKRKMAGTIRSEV

[3] = inhibitors of clade B AD8 Env fusion, dose response, cell-based, cherry-pick (AID 652062); assay type: functional;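 note: luciferase signal from cell-cell fusion driven by HIV-1 clade B AD8 Env; potency is for inhibitors of fusion seen as a drop in luminescence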
[4] = inhibitors of HIV Env-driven cell fusion, dose response, cherry-pick (AID 652057); assay type: functional, cell-based
[5] = Luminescence Cell-Based Dose Response HTS to Identify Inhibitors of 5'UTR Stem-Loop Driven Prion Protein mRNA Translation in H4 Neuroglioblastoma Cells. [Related pubchem assays: 1827 (Project Summary), 1813 (Primary HTS)]; assay type: functional
[6] = inhibitors of firefly luciferase expression or activity, dose response, H4 neuroglioma cells, luminescence (AID 1990); assay type: functional, cell-based
[7] = inhibitors of SNCA 5'UTR-driven reporter translation, confirmation, H4 neuroglioma cells, luminescence (AID 1988); assay type: functional, cell-based
[8] = off-target signal loss in HeLa-CEM21 co-culture – HeLa F-luc CTL cells, cherry-picked, counter-screen for HIV-1 Env fusion inhibitor project, dose response (AID 652040); assay type: functional, cell-based;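 note: potency for signal decrease marking cytotoxic or nonspecific inhibition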
[9] = ZM109 Env clade C HIV-1 fusion inhibitors, dose response, HeLa effector, CEM target cells, luciferase, cherry-pick (AID 652058); assay type: functional, cell-based
[10] = target: FAD-linked sulfhydryl oxidase ALR (Homo sapiens, UniProt P55789); experiment: inhibitors of human ALR sulfhydryl oxidase, dose response, biochemical, H2O2 detection, luminescence, cherry-pick (AID 493248)
FAD-linked sulfhydryl oxidase ALR, sequence (P55789 whole entry): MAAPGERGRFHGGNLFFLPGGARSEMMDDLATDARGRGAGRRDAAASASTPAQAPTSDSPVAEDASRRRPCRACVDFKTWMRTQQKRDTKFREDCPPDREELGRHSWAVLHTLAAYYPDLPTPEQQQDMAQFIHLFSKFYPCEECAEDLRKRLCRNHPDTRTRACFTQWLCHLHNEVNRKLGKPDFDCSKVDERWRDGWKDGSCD

[11] = target: T1, Ubiquitin-conjugating enzyme E2 N (Homo sapiens, UniProt P61088); assay type: functional;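 note: Dose-response confirmation in a TR-FRET assay detecting UBC13-driven polyubiquitin chain formation, inhibition measured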
T1 sequence (P61088 whole entry): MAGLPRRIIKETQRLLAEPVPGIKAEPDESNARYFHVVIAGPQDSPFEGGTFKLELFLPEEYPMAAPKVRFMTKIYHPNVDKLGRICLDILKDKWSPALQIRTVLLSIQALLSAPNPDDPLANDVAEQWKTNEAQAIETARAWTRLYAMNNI

[12] = target: T2, Histone-lysine N-methyltransferase NSD2 (Homo sapiens, UniProt O96028); assay type: biochemical
T2 sequence (O96028 whole entry): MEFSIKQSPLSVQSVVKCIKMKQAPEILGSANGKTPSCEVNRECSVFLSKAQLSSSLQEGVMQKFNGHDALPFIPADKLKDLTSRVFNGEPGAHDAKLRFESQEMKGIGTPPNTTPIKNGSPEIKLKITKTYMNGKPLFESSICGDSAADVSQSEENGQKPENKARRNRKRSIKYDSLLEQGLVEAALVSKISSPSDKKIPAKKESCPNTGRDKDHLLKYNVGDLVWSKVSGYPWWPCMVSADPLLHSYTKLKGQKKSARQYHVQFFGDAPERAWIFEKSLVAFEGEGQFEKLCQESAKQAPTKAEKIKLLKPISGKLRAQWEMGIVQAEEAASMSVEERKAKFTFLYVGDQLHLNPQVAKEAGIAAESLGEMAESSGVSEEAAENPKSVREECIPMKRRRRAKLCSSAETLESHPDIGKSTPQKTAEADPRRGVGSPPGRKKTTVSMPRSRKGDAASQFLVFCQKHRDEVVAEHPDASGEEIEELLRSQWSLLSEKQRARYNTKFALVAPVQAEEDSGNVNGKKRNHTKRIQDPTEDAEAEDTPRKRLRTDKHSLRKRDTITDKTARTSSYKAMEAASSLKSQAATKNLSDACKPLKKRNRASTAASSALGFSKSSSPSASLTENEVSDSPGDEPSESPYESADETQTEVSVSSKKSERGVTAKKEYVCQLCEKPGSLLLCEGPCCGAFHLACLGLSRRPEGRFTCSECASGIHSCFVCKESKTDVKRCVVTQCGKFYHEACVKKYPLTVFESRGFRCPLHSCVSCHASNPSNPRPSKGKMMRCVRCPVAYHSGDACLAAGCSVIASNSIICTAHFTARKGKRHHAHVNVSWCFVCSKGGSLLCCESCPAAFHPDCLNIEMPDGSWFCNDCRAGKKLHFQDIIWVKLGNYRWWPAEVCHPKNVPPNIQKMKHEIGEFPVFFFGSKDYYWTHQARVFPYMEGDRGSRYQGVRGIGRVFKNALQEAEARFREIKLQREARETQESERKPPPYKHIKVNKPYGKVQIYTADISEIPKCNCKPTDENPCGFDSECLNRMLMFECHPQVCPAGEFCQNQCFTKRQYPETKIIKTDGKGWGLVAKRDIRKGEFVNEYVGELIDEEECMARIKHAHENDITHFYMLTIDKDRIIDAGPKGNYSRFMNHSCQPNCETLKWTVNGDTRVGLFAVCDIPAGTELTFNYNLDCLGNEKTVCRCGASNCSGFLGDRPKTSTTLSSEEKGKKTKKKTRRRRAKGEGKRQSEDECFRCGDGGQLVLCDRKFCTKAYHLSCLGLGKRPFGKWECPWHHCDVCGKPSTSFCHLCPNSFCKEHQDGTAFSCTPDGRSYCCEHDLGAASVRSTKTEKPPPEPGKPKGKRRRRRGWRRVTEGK

BJ [13] = experiment: cells; assay type: functional, cell-based; settings: Homo sapiens
BJ [14] = experiment: cytotoxicity toward BJ-TERT-LT-ST fibroblasts, dose response, cell-based, RAS-independent, luminescence (AID 1935); assay type: functional; settings: Homo sapiens;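 note: BJ fibroblasts immortalized with TERT plus LT and ST oncogenes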
[15] = cytotoxicity toward DRD oncogenic fibroblasts, dose response, cell-based, non-viral oncogenic, luminescence (AID 1934); assay type: functional; settings: Homo sapiens
BJ [16] = experiment: cytotoxicity toward BJ-TERT fibroblasts, dose response, cell-based, RAS-independent, luminescence (AID 1933); assay type: functional; settings: Homo sapiens
Genome polyprotein = Genome polyprotein (dengue virus type 2, UniProt P29990); experiment: Dengue-2 NS5 methyltransferase inhibitors, primary screen, biochemical, confirmation dose response (AID 588689); assay type: functional
Genome polyprotein, sequence (P29990 2492-3391 limits assumed): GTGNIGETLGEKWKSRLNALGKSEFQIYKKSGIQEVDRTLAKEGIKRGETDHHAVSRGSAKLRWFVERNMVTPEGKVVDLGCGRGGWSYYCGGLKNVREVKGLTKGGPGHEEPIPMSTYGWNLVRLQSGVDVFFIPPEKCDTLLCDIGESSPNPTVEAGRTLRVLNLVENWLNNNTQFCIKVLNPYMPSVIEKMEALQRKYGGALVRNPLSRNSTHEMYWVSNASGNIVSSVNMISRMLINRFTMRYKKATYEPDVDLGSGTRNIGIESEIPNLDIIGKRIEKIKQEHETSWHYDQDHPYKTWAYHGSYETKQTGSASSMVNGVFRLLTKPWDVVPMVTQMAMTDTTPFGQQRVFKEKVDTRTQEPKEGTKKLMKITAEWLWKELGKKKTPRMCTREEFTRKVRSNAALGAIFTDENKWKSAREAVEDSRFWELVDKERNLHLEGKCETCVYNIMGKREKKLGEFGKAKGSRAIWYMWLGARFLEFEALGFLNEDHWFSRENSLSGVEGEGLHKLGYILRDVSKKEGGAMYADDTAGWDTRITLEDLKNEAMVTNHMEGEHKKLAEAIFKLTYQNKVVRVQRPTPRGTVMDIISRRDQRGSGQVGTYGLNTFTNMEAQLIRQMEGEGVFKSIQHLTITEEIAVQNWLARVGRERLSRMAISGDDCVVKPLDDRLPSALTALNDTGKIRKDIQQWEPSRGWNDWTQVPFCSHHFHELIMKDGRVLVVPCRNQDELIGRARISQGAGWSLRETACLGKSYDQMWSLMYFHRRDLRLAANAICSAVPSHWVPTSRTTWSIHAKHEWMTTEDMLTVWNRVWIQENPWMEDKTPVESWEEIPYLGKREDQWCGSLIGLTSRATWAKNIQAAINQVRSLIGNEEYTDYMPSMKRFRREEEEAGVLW

[17] = target: T3, Heat shock factor protein 1 (Mus musculus, UniProt P38532); experiment: HSF1 potentiators in luciferase reporter cells, confirmation, cell-based, NIH3T3, luminescence, dose retest (AID 435004); assay type: functional;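 note: stress induced by proteasome inhibitor MG132 added 30 min after compound; luciferase reporter driven by HSF1 response element in NIH3T3 cells; actives raise luminescence as potentiators of the MG132 stress response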
T3 sequence (P38532 whole entry): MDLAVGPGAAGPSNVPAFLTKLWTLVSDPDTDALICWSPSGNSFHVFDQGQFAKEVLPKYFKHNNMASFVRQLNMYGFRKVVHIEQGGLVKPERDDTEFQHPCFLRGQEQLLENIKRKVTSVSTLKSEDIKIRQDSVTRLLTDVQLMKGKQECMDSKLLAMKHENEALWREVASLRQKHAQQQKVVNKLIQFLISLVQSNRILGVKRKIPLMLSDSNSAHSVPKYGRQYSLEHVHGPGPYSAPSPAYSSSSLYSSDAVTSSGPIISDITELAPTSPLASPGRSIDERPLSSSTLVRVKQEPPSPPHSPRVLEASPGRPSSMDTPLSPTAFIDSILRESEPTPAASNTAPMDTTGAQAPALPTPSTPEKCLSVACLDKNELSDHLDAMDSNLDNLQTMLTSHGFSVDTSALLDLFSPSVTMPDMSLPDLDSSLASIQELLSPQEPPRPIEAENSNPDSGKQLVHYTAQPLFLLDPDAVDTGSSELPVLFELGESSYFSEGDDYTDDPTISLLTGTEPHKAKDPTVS

[18] = Luminescence Cell-Based Dose Retest to Confirm Inhibitors of Cancer Stem Cells. [Related pubchem assays (depositor defined):AID2717, AID2721]; assay type: functional; settings: Homo sapiens

## O=C(O)c1cc(N/N=C/c2cccs2)ccc1Cl
H4
  EC50: 3.38 µM (active)
[1]
  EC50: 19 µM (active)
[2]
  EC50: 0.632 µM (active)

## COc1cccc(/C=N/NC(=O)C(=O)NCc2cccnc2)c1O
Nonstructural protein 1
  IC50: 8.2 µM (active)

## O=C(NCc1ccco1)c1ccc(Cn2c(=O)c3ccccc3n(Cc3cccc(Cl)c3)c2=O)cc1
[3]
  AC50: 1.34 µM (active)
[4]
  AC50: 1.83 µM (active)
[5]
  EC50: > 120 µM (not active)
[6]
  EC50: 11.8 µM (active)
[7]
  EC50: 16.5 µM (active)
[8]
  AC50: 1.78 µM (active)
[9]
  AC50: 2.76 µM (active)

## Cc1nc(C(=O)N2CCCC(Nc3ccc(C)c(C)c3)C2)cs1 (stereo not drawn)
[10]
  AC50: 0.479 µM (active)

## NC(=O)NC(CC(=O)NNC(=O)c1ccccn1)c1ccccc1Cl (stereo not drawn)
[11]
  IC50: > 20 µM (inactive)

## CCCCCCNc1c([N+](=O)[O-])cc(C)cc1[N+](=O)[O-]
[12]
  AC50: > 20 µM (inactive)

## COc1ccc(-n2c(SCC(=O)c3c(N)n(C)c(=O)n(C)c3=O)nc3ccccc32)cc1
BJ [13]
  EC50: > 150 µM (not active)
BJ [14]
  EC50: > 150 µM (inconclusive)
[15]
  EC50: > 150 µM (not active)
BJ [16]
  EC50: > 150 µM (not active)

## O=C(O)c1cc([N+](=O)[O-])c(NCCC2=CCCCC2)c([N+](=O)[O-])c1
Genome polyprotein
  IC50: 72.8 µM (active)
[17]
  EC50: > 260 µM (inactive)

## CCC1(C)NC(=O)N(CC(=O)N2CCC(Cc3ccccc3)CC2)C1=O (stereo not drawn)
[11]
  IC50: > 20 µM (inactive)

## O=C(O)c1ccccc1N=N/C(=N/Nc1cc(S(=O)(=O)O)ccc1O)c1ccccc1
Nonstructural protein 1
  IC50: 21.9 µM (active)
Genome polyprotein
  IC50: 19.1 µM (active)
[12]
  AC50: > 20 µM (inactive)

## CC(C)(C)NC(=O)C(c1ccncc1)N(Cc1ccco1)C(=O)c1ccc(-c2ccccc2)[nH]1 (stereo not drawn)
H4
  EC50: 15.2 µM (active)
[1]
  EC50: 8.7 µM (active)
[2]
  EC50: > 30 µM (not active)

## Cc1nc2ccccc2c(=O)n1NC(=O)/C=C/c1ccc(Br)cc1
[11]
  IC50: > 20 µM (inactive)

## O=C(Nc1cc(N2CCCCC2)ncn1)c1ccc(F)cc1
H4
  EC50: 14.1 µM (active)
[1]
  EC50: > 120 µM (not active)
[2]
  EC50: 17.3 µM (active)

## CCN(CC)CCOc1ccc(/C(=C(/Cl)c2ccccc2)c2ccccc2)cc1 [ENCLOMIPHENE]
[18]
  AC50: 1.6 µM (active)
[11]
  IC50: > 20 µM (inactive)
